Reference: patent US10485800B2, “Mixed lineage kinase inhibitors for HIV/AIDS therapies” (UNIVERSITY OF ROCHESTER, priority 2012, dated 2019)
Where two headings read alike, the source gives them in different places.

Biological target: MLK3 (Homo sapiens (Human), UniProt Q16584)
Assay: Radiometric filter plate MLK3 assay
Assay type: biochemical
Conditions: read-out: MK3 IC50
Method: After a twenty minute incubation, the reactions were washed through filter plates and read on a scintillation counter. Results are shown in Table 9 below, in which +++ indicates ≤0.1 μM, ++ indicates >0.1 μM and ≤1 μM, and + indicates >1 μM.

[1] = 2 μM cold ATP (Km), 1 μM inactive MKK7b, twenty minute incubation

Chain of MLK3 (Q16584 whole entry): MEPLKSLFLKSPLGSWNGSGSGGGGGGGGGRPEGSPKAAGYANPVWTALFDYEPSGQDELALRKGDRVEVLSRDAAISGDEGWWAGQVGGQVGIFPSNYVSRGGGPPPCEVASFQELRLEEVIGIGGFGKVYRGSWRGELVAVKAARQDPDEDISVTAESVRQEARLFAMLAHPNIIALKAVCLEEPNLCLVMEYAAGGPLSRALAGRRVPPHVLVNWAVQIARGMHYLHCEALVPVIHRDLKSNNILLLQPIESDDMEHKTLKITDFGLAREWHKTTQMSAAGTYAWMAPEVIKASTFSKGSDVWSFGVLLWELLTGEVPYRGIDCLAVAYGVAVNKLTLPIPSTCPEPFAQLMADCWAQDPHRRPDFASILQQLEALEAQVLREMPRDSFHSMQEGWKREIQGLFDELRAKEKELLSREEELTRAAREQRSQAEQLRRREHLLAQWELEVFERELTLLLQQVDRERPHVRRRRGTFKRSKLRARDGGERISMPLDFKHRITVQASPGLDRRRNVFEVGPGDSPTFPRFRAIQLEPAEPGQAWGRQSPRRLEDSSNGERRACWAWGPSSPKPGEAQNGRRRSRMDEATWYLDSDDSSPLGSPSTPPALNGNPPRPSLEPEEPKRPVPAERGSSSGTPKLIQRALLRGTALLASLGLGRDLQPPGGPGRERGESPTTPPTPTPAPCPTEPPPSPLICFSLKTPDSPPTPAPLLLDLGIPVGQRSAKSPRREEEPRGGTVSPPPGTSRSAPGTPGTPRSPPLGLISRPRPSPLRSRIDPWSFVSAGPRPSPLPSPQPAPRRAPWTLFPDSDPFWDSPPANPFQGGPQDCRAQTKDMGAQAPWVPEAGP

SMILES	IC50 [1]	IC50
COc1cc(-c2cnc3[nH]c(=O)n(C4CCCC4)c3n2)cc(OC)c1OC [Example 74, 1-cyclopentyl-6-(3,4,5-trimethoxyphenyl)-1H-imidazo[4,5-b]pyrazin-2(3H)-one]	< 0.1 µM	–
COc1ccc(-c2cnc3[nH]c(=O)n(C4CCCC4)c3n2)cc1OC [Example 75, 1-cyclopentyl-6-(3,4-dimethoxyphenyl)-1H-imidazo[4,5-b]pyrazin-2(3H)-one]	> 1 µM	–
O=c1[nH]c2ncc(-c3ccncc3)nc2n1C1CCCC1 [Example 77, 1-cyclopentyl-6-(pyridin-4-yl)-1H-imidazo[4,5-b]pyrazin-2(3H)-one]	> 1 µM	–
O=c1[nH]c2ncc(-c3cc(Cl)cc(Cl)c3)nc2n1CC1CC1 [Example 80, 1-(cyclopropylmethyl)-6-(3,5-dichlorophenyl)-1H-imidazo[4,5-b]pyrazin-2(3H)-one]	> 1 µM	–
O=c1[nH]c2ncc(-c3ccc(O)cc3)nc2n1CC1CC1 [Example 81, 1-(cyclopropylmethyl)-6-(4-hydroxyphenyl)-1H-imidazo[4,5-b]pyrazin-2(3H)-one]	> 1 µM	–
O=c1[nH]c2ncc(-c3ccncc3)nc2n1CC1CC1 [Example 82, 1-(cyclopropylmethyl)-6-(pyridin-4-yl)-1H-imidazo[4,5-b]pyrazin-2(3H)-one]	> 1 µM	–
COc1cc(-c2cnc3[nH]c(=O)n(-c4ccc5[nH]ncc5c4)c3n2)cc(OC)c1OC [Example 83, 1-(1H-indazol-5-yl)-6-(3,4,5-trimethoxyphenyl)-1H-imidazo[4,5-b]pyrazin-2(3H)-one]	–	0.1 to 1 µM
Cc1cc2cc(-n3c(=O)[nH]c4ncc(-c5ccncc5)nc43)ccc2[nH]1 [Example 85, 1-(2-methyl-1H-indol-5-yl)-6-(pyridin-4-yl)-1H-imidazo[4,5-b]pyrazin-2(3H)-one]	> 1 µM	–
O=c1[nH]c2ncc(-c3ccc(N4CCOCC4)cc3)nc2n1CC1CC1 [Example 86, 1-(cyclopropylmethyl)-6-(4-morpholinophenyl)-1H-imidazo[4,5-b]pyrazin-2(3H)-one]	> 1 µM	–
COc1ccc(-c2cnc3[nH]c(=O)n(-c4ccc5[nH]ncc5c4)c3n2)cc1OC [Example 87, 6-(3,4-dimethoxyphenyl)-1-(1H-indazol-5-yl)-1H-imidazo[4,5-b]pyrazin-2(3H)-one]	> 1 µM	–
O=c1[nH]c2ncc(-c3ccncc3)nc2n1-c1ccc2[nH]ncc2c1 [Example 88, 1-(1H-indazol-5-yl)-6-(pyridin-4-yl)-1H-imidazo[4,5-b]pyrazin-2(3H)-one]	> 1 µM	–
O=c1[nH]c2ncc(-c3ccc(N4CCOCC4)cc3)nc2n1-c1ccc2[nH]ncc2c1 [Example 89, 1-(1H-indazol-5-yl)-6-(4-morpholinophenyl)-1H-imidazo[4,5-b]pyrazin-2(3H)-one]	> 1 µM	–
O=c1[nH]c2ncc(-c3ccc(O)cc3)nc2n1-c1ccc2cn[nH]c2c1 [Example 92, 6-(4-hydroxyphenyl)-1-(1H-indazol-6-yl)-1H-imidazo[4,5-b]pyrazin-2(3H)-one]	> 1 µM	–
COc1cc(OC)c(-c2cnc3[nH]c(=O)n(C4CCCC4)c3n2)c(OC)c1 [Example 94, 1-cyclopentyl-6-(2,4,6-trimethoxyphenyl)-1H-imidazo[4,5-b]pyrazin-2(3H)-one]	> 1 µM	–
Cc1cc(C)cc(-c2cnc3[nH]c(=O)n(-c4ccc5cn[nH]c5c4)c3n2)c1 [Example 95, 6-(3,5-dimethylphenyl)-1-(1H-indazol-6-yl)-1H-imidazo[4,5-b]pyrazin-2(3H)-one]	> 1 µM	–
O=c1[nH]c2ncc(-c3ccncc3)nc2n1-c1ccc2scnc2c1 [Example 98, 1-(benzo[d]thiazol-5-yl)-6-(pyridin-4-yl)-1H-imidazo[4,5-b]pyrazin-2(3H)-one]	> 1 µM	–
Cc1cc(C)cc(-c2cnc3[nH]c(=O)n(-c4ccc5scnc5c4)c3n2)c1 [Example 99, 1-(benzo[d]thiazol-5-yl)-6-(3,5-dimethylphenyl)-1H-imidazo[4,5-b]pyrazin-2(3H)-one]	> 1 µM	–
O=c1[nH]c2ncc(-c3ccc(N4CCOCC4)cc3)nc2n1-c1ccc2scnc2c1 [Example 100, 1-(benzo[d]thiazol-5-yl)-6-(4-morpholinophenyl)-1H-imidazo[4,5-b]pyrazin-2(3H)-one]	> 1 µM	–
COc1cc(-c2cnc3[nH]c(=O)n(C4CCc5ccccc54)c3n2)cc(OC)c1OC (stereo not shown) [Example 101, 1-(2,3-dihydro-1H-inden-1-yl)-6-(3,4,5-trimethoxyphenyl)-1H-imidazo[4,5-b]pyrazin-2(3H)-one]	> 1 µM	–
COc1cc(-c2cnc3[nH]c(=O)n(-c4ccc5[nH]cnc5c4)c3n2)cc(OC)c1OC [Example 102, 1-(1H-benzo[d]imidazol-5-yl)-6-(3,4,5-trimethoxyphenyl)-1H-imidazo[4,5-b]pyrazin-2(3H)-one]	< 0.1 µM	–
COc1cc(-c2cnc3[nH]c(=O)n(-c4ccc(N5CCOCC5)nc4)c3n2)cc(OC)c1OC [Example 109, 1-(6-morpholinopyridin-3-yl)-6-(3,4,5-trimethoxyphenyl)-1H-imidazo[4,5-b]pyrazin-2(3H)-one]	> 1 µM	–
COc1cc(-c2cnc3[nH]c(=O)n(C4Cc5ccccc5C4)c3n2)cc(OC)c1OC [Example 110, 1-(2,3-dihydro-1H-inden-2-yl)-6-(3,4,5-trimethoxyphenyl)-1H-imidazo[4,5-b]pyrazin-2(3H)-one]	< 0.1 µM	–
COc1cc(-c2cnc3[nH]c(=O)n(-c4cnc5[nH]ccc5c4)c3n2)cc(OC)c1OC [Example 112, 1-(1H-pyrrolo[2,3-b]pyridin-5-yl)-6-(3,4,5-trimethoxyphenyl)-1H-imidazo[4,5-b]pyrazin-2(3H)-one]	< 0.1 µM	–
COc1cc(-c2cnc3[nH]c(=O)n(-c4ccc5cc[nH]c5c4)c3n2)cc(OC)c1OC [Example 113, 1-(1H-indol-6-yl)-6-(3,4,5-trimethoxyphenyl)-1H-imidazo[4,5-b]pyrazin-2(3H)-one]	< 0.1 µM	–
Nc1ccc(-c2cnc3[nH]c(=O)n(C4CCCC4)c3n2)cn1 [Example 117, 6-(6-aminopyridin-3-yl)-1-cyclopentyl-1H-imidazo[4,5-b]pyrazin-2(3H)-one]	> 1 µM	–
COc1cc(-c2cnc3[nH]c(=O)n(C4CCCC4)c3n2)ccc1N [Example 118, 6-(4-amino-3-methoxyphenyl)-1-cyclopentyl-1H-imidazo[4,5-b]pyrazin-2(3H)-one]	–	0.1 to 1 µM
COc1cc(-c2nc3c(nc2Cl)[nH]c(=O)n3CC2CC2)cc(OC)c1OC [Example 119, 5-chloro-1-(cyclopropylmethyl)-6-(3,4,5-trimethoxyphenyl)-1H-imidazo[4,5-b]pyrazin-2(3H)-one]	> 1 µM	–
COc1cc(-c2cnc3c(c2)C(CC2CC2)C(=O)N3)cc(OC)c1OC (stereo not shown) [Example 123, 3-(cyclopropylmethyl)-5-(3,4,5-trimethoxyphenyl)-1H-pyrrolo[2,3-b]pyridin-2(3H)-one]	0.1 to 1 µM	–

Further lines, results first:

IC50 [1]	IC50	SMILES
> 1 µM	–	COc1cc(-c2cnc3[nH]c(=O)n(CC4CC4)c3c2)cc(OC)c1OC [Example 125, 1-(cyclopropylmethyl)-6-(3,4,5-trimethoxyphenyl)-1H-imidazo[4,5-b]pyridin-2(3H)-one]
> 1 µM	–	COc1cc(-c2cnc3ncn(-c4ccc5[nH]ccc5c4)c3n2)cc(OC)c1OC [Example 126, 1-(1H-indol-5-yl)-6-(3,4,5-trimethoxyphenyl)-1H-imidazo[4,5-b]pyrazine]
> 1 µM	–	COc1cc(-c2cnc3[nH]c(=S)n(CC4CC4)c3n2)cc(OC)c1OC [Example 127, 1-(cyclopropylmethyl)-6-(3,4,5-trimethoxyphenyl)-1H-imidazo[4,5-b]pyrazine-2(3H)-thione]
–	> 1 µM	COc1cc(-c2cnc3c(c2)/C(=C\c2ccncc2)C(=O)N3)cc(OC)c1OC [Example 129, (E)- and (Z)-3-pyridin-4-ylmethylene-5-(3,4,5-trimethoxy-phenyl)-1,3-dihydro-pyrrolo[2,3-b]pyridin-2-one]
> 1 µM	–	COc1cc(-c2cnc3c(c2)C(=Cc2ccccc2)C(=O)N3)cc(OC)c1OC [Example 130, 3-benzylidene-5-(3,4,5-trimethoxy-phenyl)-1,3-dihydro-pyrrolo[2,3-b]pyridin-2-one]
> 1 µM	–	COc1cc(-c2cnc3c(c2)C(=Cc2cccc(C(N)=O)c2)C(=O)N3)cc(OC)c1OC [Example 132, 3-[2-oxo-5-(3,4,5-trimethoxy-phenyl)-1,2-dihydro-pyrrolo[2,3-b]pyridin-3-ylidenemethyl]-benzamide]
> 1 µM	–	COc1cc(-c2cnc3c(c2)C(=Cc2ccc(C#N)cc2)C(=O)N3)cc(OC)c1OC [Example 133, 4-[2-oxo-5-(3,4,5-trimethoxy-phenyl)-1,2-dihydro-pyrrolo[2,3-b]pyridin-3-ylidenemethyl]-benzonitrile]
> 1 µM	–	COc1cc(-c2cnc3c(c2)C(=Cc2cccc(C#N)c2)C(=O)N3)cc(OC)c1OC [Example 134, 3-[2-oxo-5-(3,4,5-trimethoxy-phenyl)-1,2-dihydro-pyrrolo[2,3-b]pyridin-3-ylidenemethyl]-benzonitrile]
> 1 µM	–	COc1cc(-c2cnc3c(c2)C(Cc2cccnc2)C(=O)N3)cc(OC)c1OC (stereo not shown) [Example 135, 3-pyridin-3-ylmethyl-5-(3,4,5-trimethoxy-phenyl)-1,3-dihydro-pyrrolo[2,3-b]pyridin-2-one]
> 1 µM	–	COc1cc(-c2cnc3c(c2)C(Cc2ccncc2)C(=O)N3)cc(OC)c1OC (stereo not shown) [Example 136, 3-pyridin-4-ylmethyl-5-(3,4,5-trimethoxy-phenyl)-1,3-dihydro-pyrrolo[2,3-b]pyridin-2-one]
> 1 µM	–	COc1cc(-c2cnc3c(c2)C(Cc2ccccc2)C(=O)N3)cc(OC)c1OC (stereo not shown) [Example 137, 3-benzyl-5-(3,4,5-trimethoxy-phenyl)-1,3-dihydro-pyrrolo[2,3-b]pyridin-2-one]
> 1 µM	–	COc1cc(-c2cnc3c(c2)C(Cc2ccc(C(N)=O)cc2)C(=O)N3)cc(OC)c1OC (stereo not shown) [Example 138, 4-[2-oxo-5-(3,4,5-trimethoxy-phenyl)-2,3-dihydro-1H-pyrrolo[2,3-b]pyridin-3-ylmethyl]-benzamide]
